# Results reported in US11045519B2, “Arginine-rich polypeptide compositions and methods of using same” (UNM Rainforest Innovations, priority 2017, dated 2021).
# Key:
# [1] = tested on: HPV16 PsVs; experiment: HPV16 PsV infection of CHO mutant cells; format: cell-based; details: 3 μM, 1 h pre-treatment, 24 h
# Experimental: FIG. 7. HPV binding and infection of CHO mutant cells in the presence of polyR. CHO mutant pgsA-745 cells (GAG deficient) and CHO mutant pgsD-677 cells (HS deficient) were grown in Ham's F12 medium supplemented with 10% fetal bovine serum and 1% Glutamax (Invitrogen, Thermo Fisher Scientific, Inc., Carlsbad, Calif.). (A) Cells were incubated with 3 μM polyR in the medium for 30 minutes before adding HPV16 PsVs and incubating at 4° C. for one hour. After extensive washing with PBS, cells were lysed and analyzed for the content of L1, as described in FIG. 4A. (B) Semi-confluent CHO-pgsA were treated with 3 μM polyR for one hour prior to adding HPV16 PsVs. Infection was scored at 24 hours post infection as described in FIG. 1. (C) Semi-confluent CHO-pgsD cells were treated with 3 μM polyR for one hour prior to adding HPV16 PsVs. Infection was scored at 24 hours post infection as described in FIG. 1.
# To test the effects of polyR on cells that differentially express heparan sulfate versus heparan sulfonated proteoglycans, like glycosaminoglycans (GAGs), genetically mutant clones of Chinese hamster ovary (CHO) cell lines were used. […] First, the effect of polyR on HPV16 PsV binding to these mutant cells was measured.
# [2] = molecular target: T1, recombinant His-furin (Homo sapiens, UniProt P09958); experiment: Furin cleavage of HPV16 L2 capsid protein (immunoblot); format: biochemical; details: 1 μM, 3 nM His-furin, 2 h
# T1 construct: His
# T1 sequence (P09958 108-794): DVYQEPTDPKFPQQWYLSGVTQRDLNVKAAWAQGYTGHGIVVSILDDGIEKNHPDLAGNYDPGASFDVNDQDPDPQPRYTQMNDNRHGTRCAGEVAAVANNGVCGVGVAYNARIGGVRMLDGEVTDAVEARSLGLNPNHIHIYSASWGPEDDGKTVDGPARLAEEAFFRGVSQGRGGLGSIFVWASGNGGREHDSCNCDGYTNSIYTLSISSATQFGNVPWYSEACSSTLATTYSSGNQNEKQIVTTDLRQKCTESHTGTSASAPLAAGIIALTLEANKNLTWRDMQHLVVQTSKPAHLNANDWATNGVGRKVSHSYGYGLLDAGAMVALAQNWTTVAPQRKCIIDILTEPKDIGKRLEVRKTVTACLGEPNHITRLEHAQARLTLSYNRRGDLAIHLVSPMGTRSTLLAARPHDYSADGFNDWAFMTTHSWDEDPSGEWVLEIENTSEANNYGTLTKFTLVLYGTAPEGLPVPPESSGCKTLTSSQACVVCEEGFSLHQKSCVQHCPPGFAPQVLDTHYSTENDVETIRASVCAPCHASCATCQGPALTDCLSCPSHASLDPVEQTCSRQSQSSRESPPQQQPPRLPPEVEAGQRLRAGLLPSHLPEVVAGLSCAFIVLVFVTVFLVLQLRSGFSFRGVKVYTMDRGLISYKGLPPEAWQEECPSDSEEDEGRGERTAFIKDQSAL
# Experimental: FIG. 9. PolyR inhibits HPV16 L2 protein cleavage by furin and induces accumulation of internalized virus particles in late endosomal fraction. (A) Equal amount of HPV16 diluted in 50 μl furin assay buffer (1 mM CaCl2), 100 mM HEPES, 0.5% Triton X-100, 1 mM β-mercaptoethanol) was loaded into six tubes, […], in the presence of 1.3 μM furin inhibitor1 (Merck Millipore Corp., Burlington, Mass.), or 1 μM polyR. Samples were mixed with SDS-PAGE sample buffer and boiled before fractionation on 9% gel. Proteins were transferred onto PVDF membranes and after blocking, incubated with affinity-purified rabbit anti-HPV16 polyclonal antibody. Secondary donkey anti-rabbit horseradish peroxidase-coupled antibody was used for detection of HPV16 capsid proteins. (B) HaCaT cells grown on coverslips were incubated with HPV16 PsVs for one hour at 37° C. to initiate virus binding (and partial internalization) before adding 1 μM polyR and further incubated for seven hours. […]
# Cleavage of the L2 minor capsid protein by the cellular pro-protein convertase, furin, is an essential step in infectious entry of HPVs. […] After two hours of incubation, HPV16 cleavage was assessed by immunoblotting using anti-HPV 16 polyclonal antibody. […]
# [3] = tested on: HPV16 pseudovirions (PsVs); experiment: HPV16 PsV luciferase infectivity assay, HaCaT cells pretreated with peptide; format: cell-based; details: 24 h
# Experimental: HaCaT cells were cultured in complete growing medium (CM; Dulbecco's modified Eagle's medium nutrient mixture F-12 HAM (Sigma-Aldrich, St. Louis, Mo.)) supplemented with 10% fetal bovine serum (FBS), amino acids (Sigma-Aldrich, St. Louis, Mo.), 2 mM L-glutamine, 100 U/ml penicillin and 1 μg/ml streptomycin (Sigma-Aldrich, St. Louis, Mo.), as previously described (Patterson et al., 2005. J Virol 79:6838-6847). Semi-confluent cells were pretreated for 30 minutes with arginine-rich peptides dissolved in CM (6 μM gp91dstat, gp91dstat (scramble), R9, and TAT, or 3 polyR) before the exposure to HaCaT cells and 300 vge/cell HPV16 pseudovirions (PsVs) packaging a luciferase reporter plasmid. Infectivity was scored after 24 hours of incubation at 37° C. (i.e., post infection) by Lumat LB9501 (Berthold Technologies GmbH & Co KG, Bad Wildbad, Germany) equipment, using the luciferase assay kit (Promega, Madison, Wis.) according to manufacturer's specification. Raw data were normalized to total cellular protein concentration. Graph summarizes triplicate treatments; error bars represent SEM.
# Fifty percent inhibitory concentration (IC50) of HPV16 PsV infection of HaCaT cells by the compounds. For generation of an inhibitory concentration 50 (IC50) curves, cells were pretreated with the indicated concentration of arginine-rich peptides prior to HPV16 PsV exposure. Infectivity was scored after 24 hours of incubation at 37° C. and the data from two independent duplicate experiments were pooled and analyzed using non-linear regression (curve fit) function of PRISM software (GraphPad Software, Inc., LaJolla, Calif.).
# Semi-confluent HaCaT cells maintained in CM, were pretreated for one hour with PrS dissolved in CM at the 0-5.8 μM concentrations before exposure to HPV16 PsVs (350 vge/cell). Infectivity was scored after 24 hours of incubation at 37° C. using a luminometer (Lumat LB9501, Berthold GmbH & Co., Bad Wildbad, Germany) and luciferase assay (Promega, Madison, Wis.) according to manufacturer's specification. Raw data were normalized to total cellular protein concentration.
# For generation of an inhibitory concentration 50 (IC50) curve for PrS inhibition, data from two independent duplicate experiments was pooled and analyzed using the non-linear regression (curve fit) function of PRISM (GraphPad Software, Inc., La Jolla, Calif.).
# 3 μM PrS incubated for one hour at room temperature with 2 mg/ml high or low molecular weight HA in CM, prior to the addition to HaCaT cells. 350 vge/cell HPV16 PsVs were used for infection of cells in the presence or absence of PrS or HA:PrS complex. Infection was scored after 24 hours as described in FIG. 12.
# HaCaT cells were pretreated with 6 μM concentrations of gp91dstat, gp91dstat (scramble), R9, or TAT, or 3 μM polyR. After 30 minutes of incubation at 37° C., cells were infected with HPV16 pseudovirions (PsVs) at a dose of 300 viral genome equivalents (vge)/cell, and the relative infectivity was quantified after 24 hours compared to infection in untreated cells (FIG. 1). Each treatment was performed in triplicate.
# To evaluate the anti-HPV activity of PrS, HaCaT cells, a keratinocyte-derived cell line, was used as a model for analysis of HPV infection. […]
# Infections were initiated using Luciferase-expressing HPV16 PsVs that were produced, isolated, and quantified as described previously (Surviladze et al., 2012. PLoS Pathogens 8: e1002519; Campos S K and Ozbun M A, 2009. PloS One 4:e4463). […]
substance,measurement,setting,value
poly-L-arginine [polyR],reduction of HPV16 infection,[1]; CHO pgsA-745 cells,63%
same,reduction of HPV16 infection,[1]; CHO pgsD-677 cells,92%
same,furin cleavage of L2 capsid protein,[2],inhibited cleavage of the L2 capsid protein
same,inhibition of HPV16 PsV infection,"[3]; 3 μM, 30 min pretreatment of HaCaT cells, 300 vge/cell",> 98%
same,IC50,"[3]; pretreatment before PsV exposure, two independent duplicate experiments, read-out: IC50 of HPV16 PsV infection of HaCaT cells",19 nM
